Results taken from PMC3105219 (Neuropharmacology, 2011).

Assays:
[1] = target: mNET-TM8m (A415T/L418I/S421A/A427S/A433V/D435E) (Mus musculus, UniProt O55192, A414T/A426S/A432V/D434E/L417I/S420A); assay: Uptake inhibition, mNET-TM8m mutant; format: cell-based; conditions: read-out: RTI-113 IC50 [nM] uptake inhibition, mean ± SEM
[2] = target: mNET-TM6m (T306S/I315V/F316C/A321) (Mus musculus, UniProt O55192, A321V/F316C/I315V/T306S); assay: Uptake inhibition, mNET-TM6m mutant; format: cell-based; conditions: read-out: RTI-113 IC50 [nM] uptake inhibition, mean ± SEM
[3] = target: mNET-TM3m (Y151F/S159A/Y161H) (Mus musculus, UniProt O55192, S159A/Y151F/Y161H); assay: Uptake inhibition, mNET-TM3m mutant; format: cell-based; conditions: read-out: RTI-113 IC50 [nM] uptake inhibition, mean ± SEM
mDAT F155Y = mDAT F155Y (Mus musculus, UniProt Q61327, F155Y); assay: Uptake inhibition, mDAT F155Y mutant; format: cell-based; conditions: for IC50: read-out: IC50 uptake inhibition, mDAT F155Y, mean ± SEM
mNET Y151F = mNET Y151F (Mus musculus, UniProt O55192, Y151F); assay: Uptake inhibition, mNET Y151F mutant; format: cell-based; conditions: for IC50: read-out: IC50 uptake inhibition, mNET Y151F, mean ± SEM
mNET Y151A = mNET Y151A (Mus musculus, UniProt O55192, Y151A); assay: Uptake inhibition, mNET Y151A mutant; format: cell-based; conditions: read-out: RTI-113 IC50 [nM] uptake inhibition, mean ± SEM
mNET Y151C = mNET Y151C (Mus musculus, UniProt O55192, Y151C); assay: Uptake inhibition, mNET Y151C mutant; format: cell-based; conditions: read-out: RTI-113 IC50 [nM] uptake inhibition, mean ± SEM
mNET Y151D = mNET Y151D (Mus musculus, UniProt O55192, Y151D); assay: Uptake inhibition, mNET Y151D mutant; format: cell-based; conditions: read-out: RTI-113 IC50 [nM] uptake inhibition, mean ± SEM
mNET Y151E = mNET Y151E (Mus musculus, UniProt O55192, Y151E); assay: Uptake inhibition, mNET Y151E mutant; format: cell-based; conditions: read-out: RTI-113 IC50 [nM] uptake inhibition, mean ± SEM
mNET Y151G = mNET Y151G (Mus musculus, UniProt O55192, Y151G); assay: Uptake inhibition, mNET Y151G mutant; format: cell-based; conditions: read-out: RTI-113 IC50 [nM] uptake inhibition, mean ± SEM
mNET Y151I = mNET Y151I (Mus musculus, UniProt O55192, Y151I); assay: Uptake inhibition, mNET Y151I mutant; format: cell-based; conditions: read-out: RTI-113 IC50 [nM] uptake inhibition, mean ± SEM
mNET Y151K = mNET Y151K (Mus musculus, UniProt O55192, Y151K); assay: Uptake inhibition, mNET Y151K mutant; format: cell-based; conditions: read-out: RTI-113 IC50 [nM] uptake inhibition, mean ± SEM
mNET Y151L = mNET Y151L (Mus musculus, UniProt O55192, Y151L); assay: Uptake inhibition, mNET Y151L mutant; format: cell-based; conditions: read-out: RTI-113 IC50 [nM] uptake inhibition, mean ± SEM
mNET Y151M = mNET Y151M (Mus musculus, UniProt O55192, Y151M); assay: Uptake inhibition, mNET Y151M mutant; format: cell-based; conditions: read-out: RTI-113 IC50 [nM] uptake inhibition, mean ± SEM
mNET Y151N = mNET Y151N (Mus musculus, UniProt O55192, Y151N); assay: Uptake inhibition, mNET Y151N mutant; format: cell-based; conditions: read-out: RTI-113 IC50 [nM] uptake inhibition, mean ± SEM
mNET Y151Q = mNET Y151Q (Mus musculus, UniProt O55192, Y151Q); assay: Uptake inhibition, mNET Y151Q mutant; format: cell-based; conditions: read-out: RTI-113 IC50 [nM] uptake inhibition, mean ± SEM
mNET Y151S = mNET Y151S (Mus musculus, UniProt O55192, Y151S); assay: Uptake inhibition, mNET Y151S mutant; format: cell-based; conditions: read-out: RTI-113 IC50 [nM] uptake inhibition, mean ± SEM
mNET Y151T = mNET Y151T (Mus musculus, UniProt O55192, Y151T); assay: Uptake inhibition, mNET Y151T mutant; format: cell-based; conditions: read-out: RTI-113 IC50 [nM] uptake inhibition, mean ± SEM
mNET Y151V = mNET Y151V (Mus musculus, UniProt O55192, Y151V); assay: Uptake inhibition, mNET Y151V mutant; format: cell-based; conditions: read-out: RTI-113 IC50 [nM] uptake inhibition, mean ± SEM
mNET Y151W = mNET Y151W (Mus musculus, UniProt O55192, Y151W); assay: Uptake inhibition, mNET Y151W mutant; format: cell-based; conditions: read-out: RTI-113 IC50 [nM] uptake inhibition, mean ± SEM
DAT = conditions: ref Carroll et al., 1995, cited from earlier work
NET = conditions: ref Carroll et al., 1995, cited from earlier work
mNET = mNET (Mus musculus, UniProt O55192); format: cell-based
mDAT = mDAT (Mus musculus, UniProt Q61327); assay: Inhibition of [3H]dopamine uptake, wild type mDAT in transfected HeLa cells; format: cell-based
mDAT, sequence (Q61327 whole entry): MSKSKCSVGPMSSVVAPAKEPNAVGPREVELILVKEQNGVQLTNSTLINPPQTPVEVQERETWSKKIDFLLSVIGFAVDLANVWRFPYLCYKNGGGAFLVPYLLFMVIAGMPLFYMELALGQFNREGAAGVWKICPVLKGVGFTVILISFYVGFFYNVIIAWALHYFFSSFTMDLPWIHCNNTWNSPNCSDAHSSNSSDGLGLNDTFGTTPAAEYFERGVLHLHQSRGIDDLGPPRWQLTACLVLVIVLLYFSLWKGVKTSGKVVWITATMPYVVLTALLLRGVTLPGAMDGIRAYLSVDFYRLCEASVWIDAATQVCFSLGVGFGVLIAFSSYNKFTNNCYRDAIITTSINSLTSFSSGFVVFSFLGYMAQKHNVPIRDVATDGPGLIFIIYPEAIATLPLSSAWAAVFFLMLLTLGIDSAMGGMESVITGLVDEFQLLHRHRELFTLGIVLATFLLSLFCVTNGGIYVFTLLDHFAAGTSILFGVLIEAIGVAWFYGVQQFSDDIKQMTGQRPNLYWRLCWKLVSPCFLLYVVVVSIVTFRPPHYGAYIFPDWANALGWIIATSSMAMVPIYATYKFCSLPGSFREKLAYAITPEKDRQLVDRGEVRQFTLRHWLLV

mNET Y151F, sequence (O55192 whole entry Y151F): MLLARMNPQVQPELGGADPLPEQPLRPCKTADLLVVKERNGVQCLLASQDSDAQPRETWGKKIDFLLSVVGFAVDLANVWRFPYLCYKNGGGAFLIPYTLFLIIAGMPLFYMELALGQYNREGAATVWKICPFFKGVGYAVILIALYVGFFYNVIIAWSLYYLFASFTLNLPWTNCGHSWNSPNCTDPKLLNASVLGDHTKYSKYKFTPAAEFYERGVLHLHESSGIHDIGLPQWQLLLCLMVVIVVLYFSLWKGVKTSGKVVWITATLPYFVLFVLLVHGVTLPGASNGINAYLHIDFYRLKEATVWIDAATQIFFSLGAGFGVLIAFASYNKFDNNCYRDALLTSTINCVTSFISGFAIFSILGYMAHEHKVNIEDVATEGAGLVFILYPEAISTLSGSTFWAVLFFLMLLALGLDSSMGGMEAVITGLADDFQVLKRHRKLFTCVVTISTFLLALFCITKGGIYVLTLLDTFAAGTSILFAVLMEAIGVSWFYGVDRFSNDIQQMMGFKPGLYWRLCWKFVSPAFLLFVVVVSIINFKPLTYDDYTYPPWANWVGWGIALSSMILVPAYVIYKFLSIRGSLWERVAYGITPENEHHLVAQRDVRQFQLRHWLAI
mDAT F155Y, sequence (Q61327 whole entry F155Y): as the sequence (Q61327 whole entry) above, with F155Y counted along it
mNET-TM6m (T306S/I315V/F316C/A321), sequence (O55192 whole entry T306S/I315V/F316C/A321V): as the sequence (O55192 whole entry Y151F) above, with F151Y, T306S, I315V, F316C, A321V counted along it
mNET Y151N, sequence (O55192 whole entry Y151N): as the sequence (O55192 whole entry Y151F) above, with F151N counted along it
mNET-TM8m (A415T/L418I/S421A/A427S/A433V/D435E), sequence (O55192 whole entry A414T/L417I/S420A/A426S/A432V/D434E): as the sequence (O55192 whole entry Y151F) above, with F151Y, A414T, L417I, S420A, A426S, A432V, D434E counted along it
mNET Y151K, sequence (O55192 whole entry Y151K): as the sequence (O55192 whole entry Y151F) above, with F151K counted along it
mNET Y151W, sequence (O55192 whole entry Y151W): as the sequence (O55192 whole entry Y151F) above, with F151W counted along it
mNET, sequence (O55192 whole entry): as the sequence (O55192 whole entry Y151F) above, with F151Y counted along it
mNET Y151D, sequence (O55192 whole entry Y151D): as the sequence (O55192 whole entry Y151F) above, with F151D counted along it
mNET Y151S, sequence (O55192 whole entry Y151S): as the sequence (O55192 whole entry Y151F) above, with F151S counted along it
mNET Y151G, sequence (O55192 whole entry Y151G): as the sequence (O55192 whole entry Y151F) above, with F151G counted along it
mNET Y151V, sequence (O55192 whole entry Y151V): as the sequence (O55192 whole entry Y151F) above, with F151V counted along it
mNET Y151M, sequence (O55192 whole entry Y151M): as the sequence (O55192 whole entry Y151F) above, with F151M counted along it
mNET Y151C, sequence (O55192 whole entry Y151C): as the sequence (O55192 whole entry Y151F) above, with F151C counted along it
mNET Y151E, sequence (O55192 whole entry Y151E): as the sequence (O55192 whole entry Y151F) above, with F151E counted along it
mNET Y151Q, sequence (O55192 whole entry Y151Q): as the sequence (O55192 whole entry Y151F) above, with F151Q counted along it
mNET Y151I, sequence (O55192 whole entry Y151I): as the sequence (O55192 whole entry Y151F) above, with F151I counted along it
mNET-TM3m (Y151F/S159A/Y161H), sequence (O55192 whole entry Y151F/S159A/Y161H): as the sequence (O55192 whole entry Y151F) above, with S159A, Y161H counted along it
mNET Y151L, sequence (O55192 whole entry Y151L): as the sequence (O55192 whole entry Y151F) above, with F151L counted along it
mNET Y151T, sequence (O55192 whole entry Y151T): as the sequence (O55192 whole entry Y151F) above, with F151T counted along it
mNET Y151A, sequence (O55192 whole entry Y151A): as the sequence (O55192 whole entry Y151F) above, with F151A counted along it

For `CN1[C@H]2CC[C@@H]1[C@@H](C(=O)Oc1ccccc1)[C@@H](c1ccc(Cl)cc1)C2` [RTI-113], the IC50 [1] was 269 ± 35.8 nM, the IC50 [2] was 341 ± 77.2 nM and the IC50 [3] was 1.89 ± 1.29 nM. The decrease in potency (mDAT F155Y; mDAT-F155Y versus wild type mDAT) was 20 fold, the IC50 (mDAT F155Y) was 13.4 ± 1.9 nM and the “increase in potency for inhibition of substrate uptake” value (mNET Y151F; mNET-Y151F versus wild type mNET) was 14 fold. For the same compound, the IC50 (mNET Y151F) was 12.1 ± 0.8 nM, the IC50 (mNET Y151A) was 130 ± 15.1 nM and the IC50 (mNET Y151C) was 211 ± 23 nM. It also gave an IC50 (mNET Y151D) of 306 ± 105 nM, an IC50 (mNET Y151E) of 770 ± 55.3 nM and an IC50 (mNET Y151G) of 165 ± 28.4 nM. For the same compound, the IC50 (mNET Y151I) was 199 ± 65.1 nM, the IC50 (mNET Y151K) was 453 ± 71 nM and the IC50 (mNET Y151L) was 342 ± 110 nM. For the same compound, the IC50 (mNET Y151M) was 679 ± 174 nM, the IC50 (mNET Y151N) was 291 ± 51.5 nM and the IC50 (mNET Y151Q) was 831 ± 69 nM. It also gave an IC50 (mNET Y151S) of 99.3 ± 43.8 nM, an IC50 (mNET Y151T) of 115 ± 33.2 nM and an IC50 (mNET Y151V) of 181 ± 81.1 nM. The IC50 (mNET Y151W) was 256 ± 66.9 nM, the “potency at inhibiting DAT relative to inhibiting NET” value (DAT; DAT over NET selectivity, stated in abstract) was 100 x and the “loss of potency to NET compared with RTI-31” value (NET; times less potent than RTI-31) was “about 100 times”.
For `COC(=O)[C@H]1[C@@H](c2ccc(Cl)cc2)C[C@H]2CC[C@H]1N2C` [RTI-31], the IC50 (mDAT F155Y) is given as 1.65 ± 1.19 nM, the IC50 (mNET Y151F) is given as 1.44 ± 0.67 nM and the “potency in inhibiting DAT compared with cocaine” value (DAT; times more potent than cocaine) is given as 100 x. The “potency in inhibiting NET compared with cocaine” value (NET; times more potent than cocaine) was 100 x.
Work on `COC(=O)[C@H]1[C@@H](OC(=O)c2ccccc2)C[C@@H]2CC[C@H]1N2C` [cocaine] yielded an IC50 (mNET) of 398 ± 66.8 nM and an IC50 (mDAT) of 318 ± 126 nM.
